Tests used:
[1] = Caco-2 permeability of ADC payload; format: in vitro ADME; settings: human; for efflux ratio at 2 h, 10 μM: B-A/A-B, read-out: ER; for Papp A→B at 2 h, 10 μM / Papp B→A at 2 h, 10 μM: payload at 10 μM; for Papp A→B at 2 h, 10 μM: apical to basolateral, read-out: Permeability Mean Caco-2 A-B Perm; for Papp B→A at 2 h, 10 μM: head incomplete (column between A-B and ER)
Protocol: 3.5.2 Caco-2 Permeability of ADC Payload
Caco-2 cells were cultured for 21 days in transwell 24-well plates at 37° C., 95% humidity, 5% CO2. Integrity of cell monolayer was confirmed by TEER (transepithelial electrical resistance) and Lucifer yellow. Payloads were spiked in duplicate at 10 μM, separately, on both sides of the cell monolayer. Permeability rates from the apical to basolateral (A-B) direction and the basolateral to apical (B-A) direction were determined by sampling aliquots from both chambers immediately after treatment (t=0) and following incubation for 2 hours. Samples were protein precipitated with organic solvent containing internal standard and analyzed by LC-MS/MS (SCI EX; API 5500). The area ratio responses of payload/internal standard over time in both directions were used to generate permeability (cm/sec) values. Efflux ratio was calculated by dividing B-A/A-B. Control compounds for low and high permeability and efflux behaved as expected.

[2] = molecular target: SF3b complex (Homo sapiens, UniProt O75533+Q7RTV0); experiment: Payload binding to the SF3b complex (SF3B1 binding); settings: SF3B1 (WT), HELA.2, read-out: SPA-ATS GMean IC50 (nM) SF3B1 (WT) HELA.2
Protocol: Exemplary herboxidiene spliceosome modulator payloads used in the preparation of ADCs were profiled. Payloads were evaluated for binding to the SF3b complex, in vitro splicing activity, and ability to inhibit cell growth.

[3] = system: THP1.1; experiment: Herboxidiene splicing modulator cell potency, CTGlo-ATS, THP1.1, 72 h; format: cell-based; settings: for CTGIo-ATS GMean LD50 (nM) 72 h THP1.1 / CTGIo-ATS Mean MinResponse % 72 h THP1.1: payload; for GI50: read-out: CTGIo-ATS GMean GI50 (nM) 72 h THP1.1
[4] = system: NCIH1650.1; experiment: Herboxidiene splicing modulator cell potency, CTGlo-ATS, NCIH1650.1, 72 h; format: cell-based; settings: for CTGIo-ATS GMean LD50 (nM) 72 h NCIH1650.1 / CTGIo-ATS Mean MinResponse % 72 h NCIH1650.1: payload; for GI50: read-out: CTGIo-ATS GMean GI50 (nM) 72 h NCIH1650.1
[5] = system: Ad2.2 pre-mRNA; experiment: In vitro splicing (IVS) assay with HeLa nuclear extract, RT-qPCR of spliced product; format: biochemical; settings: payload, HELA.2, read-out: qPCR-IVS-ATS GMean IC50 (nM) Ad2.2 HELA.2
Protocol: 2.1 In Vitro Splicing (IVS)
To evaluate payload activity in a cell-free system, an in vitro splicing assay was performed. The payloads were incubated with nuclear extracts and pre-mRNA substrate minigenes.
HeLa nuclear extract preparation: HeLa S3 cell pellets were resuspended in hypotonic buffer (10 mM HEPES pH 7.9, 1.5 mM MgCl2, 10 mM KCl, 0.2 mM PMSF, 0.5 mM DTT) and the suspension was brought up to a total of 5 packed cell volume (PCV). After centrifugation, the supernatant was discarded, and the cells were brought up to 3 PCV with hypotonic buffer and incubated on ice for 10 min. Cells were lysed using a dounce homogenizer and then centrifuged. The supernatant was discarded, and the pellet was resuspended with […] packed nuclear volume (PNV) of low salt buffer (20 mM HEPES pH 7.9, 1.5 mM MgCl2, 20 mM KCl, 0.2 mM EDTA, 25% glycerol, 0.2 mM PMSF, 0.5 mM DTT), followed by 1/2 PNV of high salt buffer (same as low salt buffer except 1.4 M KCl). The nuclei were gently mixed for 30 min before centrifuging. The supernatant (nuclear extract) was then dialyzed into storage buffer (20 mM HEPES pH 7.9, 100 mM KCl, 0.2 mM EDTA, 20% glycerol, 0.2 mM PMSF, 0.5 mM DTT). Protein concentration was determined using NanoDrop 8000 UV-Vis spectrophotometer (ThermoFisher Scientific).
IVS: All Ad2-derived sequences (Pellizzoni et al. (1998) Cell 95(5):615-24) were cloned into pcDNA3.1(+) vector (Promega) using 5′ EcoRI and 3′ Xbal restriction sites. The plasmids were linearized using Xbal and used as DNA templates in in vitro transcription reactions. The FtzΔi intron-less plasmid (Luo and Reed (1999) 96(26):14937-42) was linearized using EcoRI. All RNAs were in vitro transcribed and then purified using MEGAScript T7 (Invitrogen) and MegaClear (Invitrogen) kits, respectively. For splicing reactions using Ad2 variant pre-mRNAs, […] were prepared using 8 μg nuclear extracts prepared from HeLa S3, 2 ng pre-mRNA, 0.2 ng FTZΔi, and varying concentrations of compounds or DMSO. After a 15 min pre-incubation at 30° C., 1 μL splicing activation buffer (0.5 mM ATP, 20 mM creatine phosphate, 1.6 mM MgCl2) was added, and the reactions were incubated for 90 min at 30° C. The reactions were then quenched with 13 μL DMSO, and 25 nL was used for RT-qPCR. RT-qPCR reactions were prepared using TaqMan RNA-to-CT 1-step kit (Life Technologies), RNA from splicing reactions, Ad2 (forward: […]; reverse: […]; probe: CTGTTGGGCTCGCGGTTG) and Ftz (forward: […]; reverse: […]; probe: […]) mRNA primer-probe sets. Prism 7 (Graphpad) was used for non-linear regression curve fitting of the formed spliced product and normalized to the control (DMSO) sample.

[6] = system: Ad2.1; experiment: In vitro splicing (IVS) assay, qPCR-IVS-ATS, Ad2.1 substrate, HELA.2; format: biochemical; settings: payload, read-out: qPCR-IVS-ATS GMean IC50 (nM) Ad2.1 HELA.2
[7] = Chemical stability of ADC payload in Mcilvane buffer pH 5.5; format: physicochemical; settings: payload 20 μM, pH 5.5, 37° C.; for half-life at 20 μM: McIlvaine (citrate-phosphate) buffer, read-out: Stability Mean Stability t½ pH 5.5 (converted); for Stability Mean Stability % pH 5.5 t 24 h: % remaining at 24 h
Protocol: 3.5.3 Chemical Stability of ADC Payload
Herboxidiene splicing modulators were incubated in Mcilvane (Citrate-Phosphate) buffer, pH 5.5 (Boston Bioproducts; #BB-2466) at a final concentration of 20 μM (less than 0.5% DMSO from stock solution). The herboxidiene splicing modulator solution and the internal standard were pipetted into 96-well plates, ran on UPLC (Waters Acquity H class), and analyzed for initial chromatographic signal (t=0). The column was a Waters UPLC HSS T3 1.8 μm 2.1×50 mm column (#186003538). A gradient of mobile phase A from 95% to 10% was employed over 1 min, where A was 0.1% formic acid in water and mobile phase B was 0.1% formic acid in acetonitrile (flow rate 0.9 mL/min). The remainder of the herboxidiene splicing modulator solution was kept in a plate shaker at 37° C. (Eppendorf ThermoMixer). Sample analyses by UPLC were repeated at 24, 72, and 96 hours post-incubation at 37° C. The area ratio response of the herboxidiene splicing modulator and internal standard was determined for three time points: time 0, day 1, and either day 3 or day 4. Time 0 was set to 100. The area ratio responses of the later time points were compared to time 0. Percent remaining was calculated as follows: (Area Ratio day X/Area Ratio time 0)*100=% remaining. The slope of the line was calculated in Excel comparing the log of % remaining and time point.

[8] = in vivo; cited from earlier work

Molecule | efflux ratio at 2 h, 10 μM [1] | Papp A→B at 2 h, 10 μM [1] [×10⁻⁶ cm/s] | Papp B→A at 2 h, 10 μM [1] [×10⁻⁶ cm/s] | IC50 [2] [nM] | CTGIo-ATS GMean LD50 (nM) 72 h THP1.1 [3] [nM] | CTGIo-ATS Mean MinResponse % 72 h THP1.1 [3] [%] | GI50 [3] [nM] | CTGIo-ATS GMean LD50 (nM) 72 h NCIH1650.1 [4] [nM] | CTGIo-ATS Mean MinResponse % 72 h NCIH1650.1 [4] [%] | GI50 [4] [nM] | IC50 [5] [nM] | IC50 [6] [nM] | half-life at 20 μM [7] [h] | Stability Mean Stability % pH 5.5 t 24 h [7] [%] | plasma half-life [8]
CO[C@H]([C@@H](C)[C@H]1O[C@]1(C)C[C@H](C)/C=C/C=C(\C)[C@H]1O[C@@H](CC(=O)O)C[C@@H](OC(=O)N2CCNCC2)[C@@H]1C)[C@@H](C)O [Compound H1, 2-((2R,4R,5S,6S)-6-((S,2E,4E)-7-((2R,3R)-3-((2R,3R,4R)-4-hydroxy-3-methoxypentan-2-yl)-2-methyloxiran-2-yl)-6-methylhepta-2,4-dien-2-yl)-5-methyl-4-((piperazine-1-carbonyl)oxy)tetrahydro-2H-pyran-2-yl)acetic acid] | 1.27 | 0.263 | 0.334 | 11.7 | 697.273 | −84.238 | 114 | >10000 | 10.179 | 182 | 33.7 | 72.6 | 84 | 79 | –
Ipilimumab: fully human anti-CTLA4 antibody, IgG1 | – | – | – | – | – | – | – | – | – | – | – | – | – | – | 288 to 336 h
tremelimumab: fully human anti-CTLA4 antibody, IgG2 | – | – | – | – | – | – | – | – | – | – | – | – | – | – | approximately 22 days
CO[C@H]([C@@H](C)[C@H]1O[C@]1(C)C[C@H](C)/C=C/C=C(\C)[C@H]1O[C@@H](CNC(=O)CCCCCOC(=O)N2CCNCC2)CC[C@@H]1C)[C@@H](C)O [Compound H5, 6-((((2R,5S,6S)-6-((S,2E,4E)-7-((2R,3R)-3-((2R,3R,4R)-4-hydroxy-3-methoxypentan-2-yl)-2-methyloxiran-2-yl)-6-methylhepta-2,4-dien-2-yl)-5-methyltetrahydro-2H-pyran-2-yl)methyl)amino)-6-oxohexyl piperazine-1-carboxylate] | 22.7 | 1.04 | 23.6 | 12.9 | 3.415 | −103.352 | 0.433 | >10000 | −25.308 | 0.407 | 17.8 | 30.3 | > 168 | >100 | –

From patent US12514928B2, “Herboxidiene antibody-drug conjugates and methods of use” (Eisai R&D Management Co., Ltd., priority 2018, dated 2026)
